This note sets out measurements from patent US20230212142A9, “Substituted 5-Cyclopropyl-1H-pyrazole-3-yl-amine Derivatives as Selective CDK12/13 Inhibitors” (Aurigene Discovery Technologies Limited, priority 2019, published 2023).

A value given as a limit tells only on which side of the number the result lay.

The target of assay [1] is CDK13 (Homo sapiens, UniProt Q14004). Put plainly: Biochemical assay for CDK13 (LanthaScreen Eu Kinase Binding Assay). The settings on record: kinase tracer 236 100 nM, CDK13 5 nM. The protocol: LanthaScreen Eu Kinase Binding Assays are based on the binding and displacement of Alexa Fluor 647-labeled, ATP-competitive kinase inhibitor scaffold (kinase tracer) to the kinase of interest. Binding of the kinase tracer 236 (100 nM) to the CDK13 (5 nM) kinase is detected using a europium-labelled anti- GST tag antibody (2 nM), which binds to the kinase. Simultaneous binding of the tracer and antibody to the kinase results in a high degree of FRET (fluorescence resonance energy transfer) from the europium (Eu) donor fluorophore to the Alexa Fluor™ 647 acceptor fluorophore on the kinase tracer. Binding of an inhibitor to the kinase competes for binding with the tracer, resulting in a loss of FRET signal.
Sequence of CDK13 (Q14004 whole entry, species assumed): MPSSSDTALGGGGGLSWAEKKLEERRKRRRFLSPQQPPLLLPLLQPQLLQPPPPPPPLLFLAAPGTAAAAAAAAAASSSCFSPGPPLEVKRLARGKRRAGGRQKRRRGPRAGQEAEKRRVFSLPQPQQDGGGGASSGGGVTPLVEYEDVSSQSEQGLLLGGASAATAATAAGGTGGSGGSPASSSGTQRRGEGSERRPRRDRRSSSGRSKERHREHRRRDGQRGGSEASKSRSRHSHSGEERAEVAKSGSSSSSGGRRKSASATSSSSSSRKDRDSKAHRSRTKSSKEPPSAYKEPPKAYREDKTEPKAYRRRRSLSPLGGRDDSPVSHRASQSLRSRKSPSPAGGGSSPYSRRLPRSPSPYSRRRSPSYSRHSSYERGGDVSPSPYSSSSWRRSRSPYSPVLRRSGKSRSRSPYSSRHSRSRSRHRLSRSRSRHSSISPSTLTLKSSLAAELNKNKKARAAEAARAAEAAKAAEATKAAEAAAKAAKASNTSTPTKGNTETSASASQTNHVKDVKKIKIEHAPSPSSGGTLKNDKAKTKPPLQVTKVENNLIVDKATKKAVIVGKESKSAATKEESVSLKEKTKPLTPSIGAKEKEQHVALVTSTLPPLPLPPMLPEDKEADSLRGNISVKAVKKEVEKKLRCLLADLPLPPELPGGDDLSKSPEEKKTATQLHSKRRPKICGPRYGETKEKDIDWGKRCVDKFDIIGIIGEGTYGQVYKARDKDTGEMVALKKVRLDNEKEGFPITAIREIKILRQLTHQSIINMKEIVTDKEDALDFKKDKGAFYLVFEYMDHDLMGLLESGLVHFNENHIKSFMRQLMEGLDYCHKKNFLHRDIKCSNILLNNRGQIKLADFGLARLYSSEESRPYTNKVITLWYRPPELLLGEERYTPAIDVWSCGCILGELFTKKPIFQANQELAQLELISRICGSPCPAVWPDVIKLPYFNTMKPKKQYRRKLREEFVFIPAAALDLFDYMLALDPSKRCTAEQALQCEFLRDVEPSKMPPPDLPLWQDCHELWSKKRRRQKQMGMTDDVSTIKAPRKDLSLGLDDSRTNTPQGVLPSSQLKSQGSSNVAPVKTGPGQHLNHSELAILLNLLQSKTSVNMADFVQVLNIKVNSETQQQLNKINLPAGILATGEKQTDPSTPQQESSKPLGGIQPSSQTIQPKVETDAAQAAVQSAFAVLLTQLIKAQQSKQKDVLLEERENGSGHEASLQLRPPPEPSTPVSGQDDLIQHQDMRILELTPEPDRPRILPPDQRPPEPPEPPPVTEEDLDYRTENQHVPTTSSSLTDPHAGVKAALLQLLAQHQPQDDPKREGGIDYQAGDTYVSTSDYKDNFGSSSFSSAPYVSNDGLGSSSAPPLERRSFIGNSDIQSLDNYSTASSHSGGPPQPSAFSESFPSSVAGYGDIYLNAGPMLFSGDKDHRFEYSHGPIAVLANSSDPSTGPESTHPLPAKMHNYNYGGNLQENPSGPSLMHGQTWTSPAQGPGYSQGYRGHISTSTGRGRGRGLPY
Sequence of CDK13 (O75909 whole entry partner, species assumed): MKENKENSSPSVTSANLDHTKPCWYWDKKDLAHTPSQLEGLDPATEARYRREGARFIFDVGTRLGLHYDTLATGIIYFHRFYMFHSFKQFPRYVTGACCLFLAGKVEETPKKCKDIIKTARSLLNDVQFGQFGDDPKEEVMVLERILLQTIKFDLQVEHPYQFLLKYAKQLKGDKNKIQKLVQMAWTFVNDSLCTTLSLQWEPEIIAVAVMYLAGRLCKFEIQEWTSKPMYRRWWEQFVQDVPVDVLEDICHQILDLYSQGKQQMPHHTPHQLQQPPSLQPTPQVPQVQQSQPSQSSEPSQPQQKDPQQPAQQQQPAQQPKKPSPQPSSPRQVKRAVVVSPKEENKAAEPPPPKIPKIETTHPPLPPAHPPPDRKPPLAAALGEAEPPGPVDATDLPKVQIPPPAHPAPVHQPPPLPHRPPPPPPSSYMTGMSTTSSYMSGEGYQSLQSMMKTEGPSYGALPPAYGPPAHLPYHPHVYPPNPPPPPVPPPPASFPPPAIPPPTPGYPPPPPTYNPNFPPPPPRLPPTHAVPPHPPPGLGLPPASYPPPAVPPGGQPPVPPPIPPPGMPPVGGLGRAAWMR
For orientation: TR-FRET usually uses a lanthanide donor and a delayed reading to cut background.

Assay [2] has as its target CDK12 (Homo sapiens, UniProt Q9NYV4). Put plainly: Biochemical assay for CDK12 (kinase-tagged phage / qPCR competition binding). On the set-up: host or cells: E. coli BL21-derived host (T7 phage display) or HEK-293. The method, then: Kinase-tagged T7 phage strains were grown in parallel in 24-well blocks in an E. coli host derived from the BL21 strain. E. coli were grown to log-phase and infected with T7 phage from a frozen stock (multiplicity of infection=0.4) and incubated with shaking at 32° C. until lysis (90-150 minutes). The lysates were centrifuged (6,000×g) and filtered (0.2 μm) to remove cell debris. The remaining kinases were produced in HEK-293 cells and subsequently tagged with DNA for qPCR detection. Streptavidin-coated magnetic beads were treated with biotinylated small molecule ligands for 30 minutes at room temperature to generate affinity resins for kinase assays. The liganded beads were blocked with excess biotin and washed with blocking buffer (SeaBlock (Pierce), 1% BSA, 0.05% Tween 20, 1 mM
DTT) to remove unbound ligand and to reduce non-specific phage binding. Binding reactions were assembled by combining kinases, liganded affinity beads, and test compounds in lx binding buffer (20% SeaBlock, 0.17×PBS, 0.05% Tween 20, 6 mM DTT). Test compounds were prepared as 40× stocks in 100% DMSO and directly diluted into the assay. All reactions were performed in polypropylene 384-well plates in a final volume of 0.02 ml. The assay plates were incubated at room temperature with shaking for 1 hour and the affinity beads were washed with wash buffer (1 PBS, 0.05% Tween 20). The beads were then re-suspended in elution buffer (1× PBS, 0.05% Tween 20, 0.5 μM non-biotinylated affinity ligand) and incubated at room temperature with shaking for 30 minutes. The kinase concentration in the eluates was measured by qPCR.
(Quantitative PCR measures a nucleic acid by following its amplification.)

For assay [3], the target named is CDK7 (Homo sapiens, UniProt P50613). Put plainly: Biochemical assay for CDK7 (LANCE TR-FRET, ULight-MBP phosphorylation). Conditions: CDK7 10 nM, ATP 1 mM/100 μM, 60 min pre-incubation. The protocol: The inhibitory activity of the test compounds was assessed by the LANCE TR-FRET assay, which detects the ATP-dependent phosphorylation of an ULight-myelin basic protein (MBP) substrate peptide (100 nM) by CDK7 (10 nM). Briefly, the enzyme reaction was run in reaction buffer (20 mM HEPES (pH 7.5), 10 mM MgCl2, 0.01% Triton x, 100 μM Sodium Orthovanadate, 1 mM DTT). The assay was performed in 384-well plate. The end concentration of the ATP substrate was 1 mM/100 μM, and that of the ULight-MBP substrate peptide was 100 nM, and of CDK7 was 10 nM. Pre-incubation of the compound and enzyme was performed for 60 min at room temperature. After 60 min incubation at room temperature, the reaction was terminated by the addition of 40 mM EDTA and 1 nM Eu-labeled anti-phospho-MBP-binding protein antibody in the buffer. Time-resolved fluorescence (excitation, 320 nm; emission donor, 615 nm; emission acceptor, 665 nm) was monitored by using 2030 multilabel reader Victor5 (PerkinElmer). The readout was calculated as (acceptor counts/donor counts)×1000. The IC50 values were derived by fitting a sigmoidal dose-response curve to a plot of assay readout over inhibitor concentration. All fits were computed with the program Prism 5.03 (Graph Pad Software, San Diego, Calif.).
Sequence of CDK7 (P50613 whole entry, species assumed): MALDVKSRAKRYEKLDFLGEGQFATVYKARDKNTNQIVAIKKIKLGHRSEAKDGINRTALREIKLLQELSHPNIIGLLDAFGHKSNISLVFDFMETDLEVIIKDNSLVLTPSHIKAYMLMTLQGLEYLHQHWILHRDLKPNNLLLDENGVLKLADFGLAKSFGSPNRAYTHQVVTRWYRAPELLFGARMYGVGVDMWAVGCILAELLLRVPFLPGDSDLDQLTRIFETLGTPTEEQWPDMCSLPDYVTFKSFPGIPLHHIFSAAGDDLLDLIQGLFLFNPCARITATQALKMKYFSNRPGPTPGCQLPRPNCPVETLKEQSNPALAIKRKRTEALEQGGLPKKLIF
Sequence of CDK7 (P51946 whole entry partner, species assumed): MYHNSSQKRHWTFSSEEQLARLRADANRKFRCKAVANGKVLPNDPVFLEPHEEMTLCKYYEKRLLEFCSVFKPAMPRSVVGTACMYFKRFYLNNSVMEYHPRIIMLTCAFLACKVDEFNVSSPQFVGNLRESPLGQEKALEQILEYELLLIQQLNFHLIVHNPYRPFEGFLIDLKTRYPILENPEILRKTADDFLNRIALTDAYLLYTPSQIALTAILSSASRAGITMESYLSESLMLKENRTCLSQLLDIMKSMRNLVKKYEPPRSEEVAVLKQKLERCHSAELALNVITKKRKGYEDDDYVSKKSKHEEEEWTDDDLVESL
Sequence of CDK7 (P51948 whole entry partner, species assumed): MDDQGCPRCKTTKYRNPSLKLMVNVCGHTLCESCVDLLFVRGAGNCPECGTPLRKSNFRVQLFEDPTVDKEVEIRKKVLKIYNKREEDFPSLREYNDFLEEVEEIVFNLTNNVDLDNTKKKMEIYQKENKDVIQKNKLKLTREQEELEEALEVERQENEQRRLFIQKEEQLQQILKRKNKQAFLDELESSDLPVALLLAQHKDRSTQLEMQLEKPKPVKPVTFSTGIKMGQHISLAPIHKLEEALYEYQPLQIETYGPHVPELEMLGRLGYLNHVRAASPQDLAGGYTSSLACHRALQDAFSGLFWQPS

By IC50 is commonly meant the concentration that gives 50% inhibition. A lower IC50 goes with greater potency. For orientation: Kd means the free concentration of one partner at which half of the binding sites on the other are occupied at equilibrium, for simple one-to-one binding. High values mean weaker binding, low ones tighter binding.

Sequence of CDK12 (Q9NYV4 whole entry, species assumed): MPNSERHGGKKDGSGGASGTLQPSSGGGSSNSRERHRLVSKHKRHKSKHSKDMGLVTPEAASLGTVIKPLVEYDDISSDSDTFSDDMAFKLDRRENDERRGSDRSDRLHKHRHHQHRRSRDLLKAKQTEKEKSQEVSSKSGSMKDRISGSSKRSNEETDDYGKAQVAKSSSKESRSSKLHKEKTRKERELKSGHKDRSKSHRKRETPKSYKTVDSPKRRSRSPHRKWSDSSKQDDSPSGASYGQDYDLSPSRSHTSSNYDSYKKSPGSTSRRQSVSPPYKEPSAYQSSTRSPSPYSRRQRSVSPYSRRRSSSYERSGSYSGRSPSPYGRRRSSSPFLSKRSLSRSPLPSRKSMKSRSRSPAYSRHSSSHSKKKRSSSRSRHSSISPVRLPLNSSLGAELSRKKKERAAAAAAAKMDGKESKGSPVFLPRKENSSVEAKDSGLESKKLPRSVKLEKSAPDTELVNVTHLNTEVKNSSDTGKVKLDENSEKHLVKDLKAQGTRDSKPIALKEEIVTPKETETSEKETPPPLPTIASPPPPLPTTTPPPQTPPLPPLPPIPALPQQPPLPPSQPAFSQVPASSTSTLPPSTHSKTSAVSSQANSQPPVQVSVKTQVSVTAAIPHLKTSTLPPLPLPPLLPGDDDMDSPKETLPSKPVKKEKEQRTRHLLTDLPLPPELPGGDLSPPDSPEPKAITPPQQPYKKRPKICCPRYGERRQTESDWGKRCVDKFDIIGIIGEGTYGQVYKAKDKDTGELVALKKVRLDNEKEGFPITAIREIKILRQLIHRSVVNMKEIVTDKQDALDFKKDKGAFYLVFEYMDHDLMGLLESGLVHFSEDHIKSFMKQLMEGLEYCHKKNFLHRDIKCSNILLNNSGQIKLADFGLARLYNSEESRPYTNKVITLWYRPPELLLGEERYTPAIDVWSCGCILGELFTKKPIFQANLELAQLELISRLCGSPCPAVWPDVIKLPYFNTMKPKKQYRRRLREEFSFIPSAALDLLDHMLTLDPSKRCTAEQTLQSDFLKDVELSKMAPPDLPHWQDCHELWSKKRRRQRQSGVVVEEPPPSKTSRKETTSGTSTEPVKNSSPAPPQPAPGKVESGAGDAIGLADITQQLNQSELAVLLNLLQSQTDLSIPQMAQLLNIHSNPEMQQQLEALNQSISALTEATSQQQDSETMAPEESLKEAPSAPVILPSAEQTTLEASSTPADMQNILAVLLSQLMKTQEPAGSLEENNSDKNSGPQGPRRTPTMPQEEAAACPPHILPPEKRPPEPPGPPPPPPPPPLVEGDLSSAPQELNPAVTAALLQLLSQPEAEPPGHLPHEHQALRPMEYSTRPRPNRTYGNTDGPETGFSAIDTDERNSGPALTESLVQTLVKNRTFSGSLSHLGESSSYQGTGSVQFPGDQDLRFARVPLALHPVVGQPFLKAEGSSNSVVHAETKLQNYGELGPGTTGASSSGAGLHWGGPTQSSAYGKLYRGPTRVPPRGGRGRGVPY

As to `CC(C(=O)Nc1cc(C2CC2)[nH]n1)c1ccc(-c2ccc(CNC(=O)/C=C/CN3CCOCC3)cc2)cc1` (stereo not shown) [Compound 15, (E)-N-((4′-(1-((5-cyclopropyl-1H-pyrazol-3-yl)amino)-1-oxopropan-2-yl)-[1,1′-biphenyl]-4-yl)methyl)-4-morpholinobut-2-enamide], the 50% inhibitory concentration (IC50) is 257 nM in assay [1] and 3660 nM in assay [3]. In addition, the dissociation constant Kd in assay [2] was less than 50 nM.

`C=CC(=O)NCc1ccc(-c2ccc(C(C)C(=O)Nc3cc(C4CC4)[nH]n3)cc2)cc1` (racemic) [Compound 9, N-((4′-(1-((5-cyclopropyl-1H-pyrazol-3-yl)amino)-1-oxopropan-2-yl)-[1,1′-biphenyl]-4-yl)methyl)acrylamide]: the IC50 in assay [1] came to 16.9 nM; in assay [3] it was 5450 nM. The compound further returned a Kd in assay [2] of more than 500 nM.

On to `C=CC(=O)NC(CC)c1ccc(-c2ccc([C@H](C)C(=O)Nc3cc(C4CC4)[nH]n3)cc2)cn1` (stereo partly drawn) [Compound 19, N-(1-(5-(4-((S)-1-((5-cyclopropyl-1H-pyrazol-3-yl)amino)-1-oxopropan-2-yl)phenyl)pyridin-2-yl)propyl)acrylamide], for which the half-maximal inhibitory concentration (IC50) in assay [1] is 13 nM. Further, the Kd in assay [2] is less than 50 nM.

The compound `C=CC(=O)NCc1ccc(C(C)C(=O)Nc2cc(C3CC3)[nH]n2)cc1` (single isomer, unassigned) [Compound 25, N-(4-(1-((5-cyclopropyl-1H-pyrazol-3-yl)amino)-1-oxopropan-2-yl)benzyl)acrylamide] came in with a Kd in assay [2] of more than 500 nM.

With `CC(C(=O)Nc1cc(C2CC2)[nH]n1)c1ccc(-c2ccc(CNC(=O)/C=C/CN3CCOCC3)nc2)cc1` (single isomer, unassigned) [Compound 13, (E)-N-((5-(4-(1-((5-cyclopropyl-1H-pyrazol-3-yl)amino)-1-oxopropan-2-yl)phenyl)pyridin-2-yl)methyl)-4-morpholinobut-2-enamide], the IC50 in assay [1] is 2060 nM; in assay [3] it was more than 10000 nM. The same compound displayed an equilibrium dissociation constant (Kd) in assay [2] of more than 500 nM.

As for `C=CC(=O)Nc1ccc(-c2ccc(C(C)C(=O)Nc3cc(C4CC4)[nH]n3)cc2)cc1` (single isomer, unassigned) [Compound 3, N-(4′-(1-((5-cyclopropyl-1H-pyrazol-3-yl)amino)-1-oxopropan-2-yl)-[1,1′-biphenyl]-4-yl)acrylamide], the 50% inhibitory concentration (IC50) stood at 18 nM in assay [1] and 1900 nM in assay [3].

Take `C=CC(=O)NCc1ccc(C(C)C(=O)Nc2cc(C3CC3)[nH]n2)cn1` (stereo not shown) [Compound 26, N-((5-(1-((5-cyclopropyl-1H-pyrazol-3-yl)amino)-1-oxopropan-2-yl)pyridin-2-yl)methyl)acrylamide]: in assay [1], the IC50 stood at 328 nM. In assay [2], this compound showed a Kd of 50 to 500 nM.

In turn, `CC(C(=O)Nc1cc(C2CC2)[nH]n1)c1ccc(-c2ccc(NC(=O)/C=C/CN3CCOCC3)cc2)cc1` (stereo not shown) [Compound 12, (E)-N-(4′-(1-((5-cyclopropyl-1H-pyrazol-3-yl)amino)-1-oxopropan-2-yl)-[1,1′-biphenyl]-4-yl)-4-morpholinobut-2-enamide] yielded an IC50 in assay [1] of 60.8 nM. This compound returned a dissociation constant (Kd) in assay [2] of less than 50 nM.

As for `CC(C(=O)Nc1cc(C2CC2)[nH]n1)c1ccc(-c2ccc(NC(=O)/C=C/CN3CCOCC3)nc2)cc1` (single isomer, unassigned) [Compound 6, (E)-N-(5-(4-(1-((5-cyclopropyl-1H-pyrazol-3-yl)amino)-1-oxopropan-2-yl)phenyl)pyridin-2-yl)-4-morpholinobut-2-enamide], the values for the half-maximal inhibitory concentration (IC50) in assay [1] and in assay [3] were 500 nM and more than 10000 nM, respectively. In assay [2], this compound came in with a Kd of 50 to 500 nM.

With `CC(C(=O)Nc1cc(C2CC2)[nH]n1)c1ccc(-c2ccc(CNC(=O)/C=C/CN3CCOCC3)cc2)cc1` (single isomer, unassigned) [Compound 17, (E)-N-((4′-(1-((5-cyclopropyl-1H-pyrazol-3-yl)amino)-1-oxopropan-2-yl)-[1,1′-biphenyl]-4-yl)methyl)-4-morpholinobut-2-enamide], the figures for the IC50 in assay [1] and in assay [3] were 53.6 nM and 1560 nM, respectively. Further, the dissociation constant (Kd) in assay [2] was less than 50 nM.

In turn, `C=CC(=O)NCc1ccc(-c2ccc(C(C)C(=O)Nc3cc(C4CC4)[nH]n3)cn2)cn1` (stereo not shown) [Compound 4, N-((5-(1-((5-cyclopropyl-1H-pyrazol-3-yl)amino)-1-oxopropan-2-yl)[2,3′-bipyridin]-6′-yl)methyl)acrylamide] returned a concentration for half-maximal inhibition (IC50) in assay [1] of 4 nM.

On to `CC(C(=O)Nc1cc(C2CC2)[nH]n1)c1ccc(-c2ccc(NC(=O)/C=C/CN3CCOCC3)nc2)cc1` (stereo not shown) [Compound 5, (E)-N-(5-(4-(1-((5-cyclopropyl-1H-pyrazol-3-yl)amino)-1-oxopropan-2-yl)phenyl)pyridin-2-yl)-4-morpholinobut-2-enamide], for which the values for the IC50 in assay [1] and in assay [3] were 24 nM and 1700 nM, respectively.

In the case of `C=CC(=O)NCc1ncc(-c2ccc([C@H](C)C(=O)Nc3cc(C4CC4)[nH]n3)cc2)cc1F` [Compound 21, (S)-N-((5-(4-(1-((5-cyclopropyl-1H-pyrazol-3-yl)amino)-1-oxopropan-2-yl)phenyl)-3-fluoropyridin-2-yl)methyl)acrylamide], the half-inhibitory concentration (IC50) turned out to be 87.7 nM in assay [1] and 1310 nM in assay [3]. The equilibrium dissociation constant (Kd) in assay [2] was less than 50 nM.

For `C=CC(=O)NCc1ccc(-c2ccc(C(C)C(=O)Nc3cc(C4CC4)[nH]n3)cc2)nc1` (stereo not shown) [Compound 22, N-((6-(4-(1-((5-cyclopropyl-1H-pyrazol-3-yl)amino)-1-oxopropan-2-yl)phenyl)pyridin-3-yl)methyl)acrylamide], the half-maximal inhibitory concentration (IC50) amounted to 20.9 nM in assay [1] and 5300 nM in assay [3]. The same compound displayed a dissociation constant Kd in assay [2] of less than 50 nM.

Regarding `CC(C(=O)Nc1cc(C2CC2)[nH]n1)c1ccc(-c2ccc(NC(=O)/C=C/CN3CCOCC3)nc2)cc1` (single isomer, unassigned) [Compound 7, (E)-N-(5-(4-(1-((5-cyclopropyl-1H-pyrazol-3-yl)amino)-1-oxopropan-2-yl)phenyl)pyridin-2-yl)-4-morpholinobut-2-enamide], the IC50 in assay [1] is 5 nM; in assay [3] it was 1020 nM. The dissociation constant Kd in assay [2] is less than 50 nM.

With `C=CC(=O)Nc1ccc(-c2ccc(C(C)C(=O)Nc3cc(C4CC4)[nH]n3)cc2)cc1` (racemic) [Compound 1, N-(4′-(1-((5-cyclopropyl-1H-pyrazol-3-yl)amino)-1-oxopropan-2-yl)-[1,1′-biphenyl]-4-yl)acrylamide], the IC50 in assay [1] turned out to be 24 nM; in assay [3] it was 11400 nM. The compound also came in with an equilibrium dissociation constant (Kd) in assay [2] of 50 to 500 nM.

On to `C=CC(=O)NC(C)c1ccc(-c2ccc([C@H](C)C(=O)Nc3cc(C4CC4)[nH]n3)cc2)cn1` (stereo partly drawn) [Compound 20, N-(1-(5-(4-((S)-1-((5-cyclopropyl-1H-pyrazol-3-yl)amino)-1-oxopropan-2-yl)phenyl)pyridin-2-yl)ethyl)acrylamide], for which the half-inhibitory concentration (IC50) in assay [1] is 36.2 nM; in assay [3], 2870 nM. This compound also came in with a Kd in assay [2] of less than 50 nM.

For the compound `C=CC(=O)NCc1ccc(C(C)C(=O)Nc2cc(C3CC3)[nH]n2)cc1` (single isomer, unassigned) [Compound 24, N-(4-(1-((5-cyclopropyl-1H-pyrazol-3-yl)amino)-1-oxopropan-2-yl)benzyl)acrylamide], in assay [1], the IC50 was 236 nM. The same compound came in with a dissociation constant (Kd) in assay [2] of 50 to 500 nM.

For the compound `C=CC(=O)NCc1ccc(-c2ccc(C(C)C(=O)Nc3cc(C4CC4)[nH]n3)cc2)cc1` (single isomer, unassigned) [Compound 11, N-((4′-(1-((5-cyclopropyl-1H-pyrazol-3-yl)amino)-1-oxopropan-2-yl)-[1,1′-biphenyl]-4-yl)methyl)acrylamide], the IC50 in assay [1] is 96 nM; in assay [3] it was 2120 nM.
